Experimental data: US10167300B2, “Metalloenzyme inhibitor compounds as fungicides” (priority 2014, dated 2019)
Like-named read-outs stand apart in the source and are kept apart here.

Assays:
[1] = tested on: Mycosphaerella graminicola; Anamorph: Septoria tritici; Bayer Code SEPTTR (standard laboratory isolate, SI SEPTTR); assay: Type A (high volume) assay, leaf blotch of wheat, standard laboratory SEPTTR isolate (SI SEPTTR); type: in vivo, Mycosphaerella graminicola on wheat plants (variety Yuma); details: standard laboratory isolate, high volume, 50 ppm, wheat (Yuma); for pest or weed control at 50 ppm: Zymoseptoria tritici
Procedure: Example A: Evaluation of Fungicidal Activity: Leaf Blotch of Wheat (Mycosphaerella graminicola; Anamorph: Septoria tritici; Bayer Code SEPTTR)
For Type A assays, technical grades of the experimental fungicides in Table 4 below were dissolved in acetone, and then mixed with nine volumes of water containing 110 ppm Triton X-100. The fungicide solutions were applied onto wheat seedlings using an automated booth sprayer. For Type B assays, emulsifiable concentrate (EC) formulations of technical grades of the experimental fungicides in Table 4 below were prepared at 10% (w/v), and then mixed with 150 volumes of 0.1% Trycol 5941. These solutions were applied onto wheat seedlings using an automated track sprayer at 200 L/ha. All sprayed plants were allowed to air dry prior to further handling.
Wheat plants (variety Yuma) were grown from seed in a greenhouse in 50% mineral soil/50% soil-less Metro mix until the first leaf was fully emerged, with 7-10 seedlings per pot. Prior to or after application of experimental fungicides, plants were inoculated either with spores of a standard laboratory SEPTTR isolate (SI SEPTTR) or with spores from a SEPTTR field isolate collected from Wellsbourne, England in 2012 (FI SEPTTR). After inoculation the plants were kept for 3 days at 20° C. in 100% relative humidity (one day in a dark dew chamber followed by two days in a lighted dew chamber). Plants were then transferred to a 20° C. greenhouse for disease development. When disease symptoms were fully expressed on untreated plants, infection levels on treated plants were assessed on a scale of 0 to 100 percent disease severity. Percent disease control was calculated using the ratio of disease severity on treated plants relative to untreated plants.

[2] = Type B (low volume, EC formulation, track sprayer 200 L/ha) assay, leaf blotch of wheat, SEPTTR field isolate (FI SEPTTR); type: in vivo, Mycosphaerella graminicola on wheat plants (variety Yuma); details: Zymoseptoria tritici, 72 h, field isolate, low volume EC, 100 g/ha, wheat (Yuma)
In short: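 Wheat seedlings (Yuma, first leaf emerged) sprayed with acetone/Triton X-100 solutions (Type A) or 10% EC diluted in 0.1% Trycol at 200 L/ha (Type B), inoculated before or after spraying. Inoculated plants held 3 days at 20 °C, 100% RH, then greenhouse; % disease control from severity versus untreated plants.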

[3] = 24 h, 1 Day Protectant, read-out: Disease Control, SI SEPTTR Type A Assay (50 ppm) 1 DP
[4] = 72 h, 3 Day Curative, read-out: Disease Control, SI SEPTTR Type A Assay (50 ppm) 3 DC
[5] = 3 Day Curative, read-out: Disease Control, FI SEPTTR Type B Assay (100 g/ha) 3 DC
[6] = 3 Day Protectant, read-out: Disease Control, FI SEPTTR Type B Assay (100 g/ha) 3 DP

| Structure (SMILES) | pest or weed control at 50 ppm [1, 3] [%] | further results |
| --- | --- | --- |
| OC(C#CC1CC1)(c1cncnc1)c1ccc(Oc2ccc(OC(F)(F)F)cc2)cn1 (stereo not shown) [Compound 48] | < 40 | pest or weed control at 50 ppm [1, 4]: < 40% |
| CC(C)(C)C#CC(O)(c1cncnc1)c1ccc(Oc2ccc(Cl)cn2)cn1 (stereo not shown) [Compound 49] | 60 to 79 | pest or weed control at 50 ppm [1, 4]: 80 to 100% |
| Cc1ccc(Oc2ccc(C(O)(C#CC(C)(C)C)c3cncnc3)nc2)nc1 (stereo not shown) [Compound 50] | < 40 | pest or weed control at 50 ppm [1, 4]: 60 to 79% |
| OC(Cc1cncnc1)(c1ccc(-c2ccc(Cl)cc2)cn1)C1CCCCC1 (stereo not shown) [Compound 52] | 60 to 79 | pest or weed control at 50 ppm [1, 4]: 60 to 79% |
| Cc1ccc(Oc2ccc(C(O)(c3cncnc3)C(C)C)nc2)nc1 (stereo not shown) [Compound 53] | 40 to 59 | pest or weed control at 50 ppm [1, 4]: < 40% |
| CCC(O)(c1cncnc1)c1ccc(Oc2ccc(Cl)cn2)cn1 (stereo not shown) [Compound 54] | < 40 | pest or weed control at 50 ppm [1, 4]: 40 to 59% |
| OC(Cc1cncnc1)(c1ccc(-c2ccc(Cl)cc2)cn1)C1CCCC1 (stereo not shown) [Compound 56] | 80 to 100 | pest or weed control at 50 ppm [1, 4]: 80 to 100% |
| CC(C)C(O)(c1cncnc1)c1ccc(Oc2ccc(C(F)(F)F)cn2)cn1 (stereo not shown) [Compound 58] | 60 to 79 | pest or weed control at 50 ppm [1, 4]: 80 to 100% |
| CC(C)C(O)(Cn1cnnn1)c1ccc(-c2ccc(OC(F)(F)F)cc2)cn1 (stereo not shown) [Compound 61] | 40 to 59 | pest or weed control at 50 ppm [1, 4]: 60 to 79% |
| CC(C)C(O)(Cn1cnnn1)c1ccc(-c2ccc(OCC(F)(F)F)nc2)cn1 (stereo not shown) [Compound 62] | 40 to 59 | pest or weed control at 50 ppm [1, 4]: 40 to 59% |
| OC(c1cncnc1)(c1ccc(-c2ccc(Cl)cc2)cn1)C1CC1 (stereo not shown) [Compound 66] | 80 to 100 | – |
| OC(c1cncnc1)(c1ccc(Oc2ccc(C(F)(F)F)cn2)cn1)C1CC1 (stereo not shown) [Compound 67] | < 40 | – |
| CC(C)(C)C(O)(Cc1cncnc1)c1ccc(-c2ccc(OC(F)F)cc2)cn1 (stereo not shown) [Compound 68] | 80 to 100 | – |
| CC(C)C(O)(c1cncnc1)c1ccc(Oc2cccc(Cl)n2)cn1 (stereo not shown) [Compound 69] | 80 to 100 | – |
| CCC(O)(c1cncnc1)c1ccc(Oc2cccc(Cl)n2)cn1 (stereo not shown) [Compound 70] | 40 to 59 | – |
| OC(c1cncnc1)(c1ccc(Oc2cccc(Cl)n2)cn1)C1CC1 (stereo not shown) [Compound 72] | < 40 | – |
| CC(C)C(O)(c1cncnc1)c1ccc(Oc2ccc(C(F)(F)F)cc2)cn1 (stereo not shown) [Compound 75] | – | Disease Control, SI SEPTTR Type A Assay (50 ppm) 1 DP ([1]; 1 Day Protectant): A (80-100) |
| CC(C)C(O)(c1cccnc1)c1ccc(Oc2ccc(Cl)cn2)cn1 (stereo not shown) [Compound 77] | 80 to 100 | – |
| OC(c1cccnc1)(c1ccc(Oc2ccc(Cl)cn2)cn1)C1CC1 (stereo not shown) [Compound 79] | 80 to 100 | – |
| CC(C)C(O)(c1ccc(-c2ccc(OC(F)F)cc2)cn1)c1cncs1 (stereo not shown) [Compound 85] | 80 to 100 | – |
| CC(C)C(O)(c1ccc(-c2ccc(OC(F)(F)F)cc2)cn1)c1cncs1 (stereo not shown) [Compound 87] | 80 to 100 | – |
| OC(c1ccc(-c2ccc(OC(F)(F)F)cc2)cn1)(c1cncs1)c1ccc(F)cc1F (stereo not shown) [Compound 94] | 60 to 79 | – |
| CC(O)(c1cncnc1)c1ccc(-c2ccc(OC(F)(F)F)cc2)cn1 (stereo not shown) [Compound 99] | 80 to 100 | pest or weed control at 100 g/ha [2, 5]: < 40%; pest or weed control at 100 g/ha [2, 6]: 40 to 59% |
| CN(C)c1ccc(-c2ccc(C(O)(c3cncnc3)C(C)(C)C)nc2)cc1 (stereo not shown) [Compound 100] | 80 to 100 | – |
| CC(C)(C)C(O)(c1cncnc1)c1ccc(-c2ccc(C#N)nc2)cn1 (stereo not shown) [Compound 108] | 60 to 79 | – |
| C=Cc1ccc(-c2ccc(C(O)(c3cncnc3)C(C)(C)C)nc2)cc1 (stereo not shown) [Compound 109] | 60 to 79 | – |
| CC(C)(C)C(O)(c1cncnc1)c1ccc(-c2ccsc2)cn1 (stereo not shown) [Compound 110] | 80 to 100 | – |

| Structure (SMILES) | pest or weed control at 50 ppm [1, 3] [%] | further results |
| --- | --- | --- |
| CCOc1ccc(-c2ccc(C(O)(c3cncnc3)C(C)(C)C)nc2)cc1 (stereo not shown) [Compound 111] | 60 to 79 | – |
| CC(C)(C)C(O)(c1cncnc1)c1ccc(-c2cncnc2)cn1 (stereo not shown) [Compound 113] | 60 to 79 | – |
| CC(C)(C)C(O)(c1cncnc1)c1ccc(-c2ccoc2)cn1 (stereo not shown) [Compound 123] | 60 to 79 | – |
| CC(C)(C)C(O)(c1cncnc1)c1ccc(-c2cccnc2)cn1 (stereo not shown) [Compound 126] | 60 to 79 | – |
| CC(C)(C)C(O)(c1cncnc1)c1ccc(-c2cnc3ccccc3c2)cn1 (stereo not shown) [Compound 127] | 80 to 100 | – |
| CC(C)(C)C(O)(c1cncnc1)c1ccc(-c2cnc(C(F)(F)F)cc2C(F)(F)F)cn1 (stereo not shown) [Compound 128] | 80 to 100 | – |
| COc1ncncc1C(O)(c1ccc(-c2ccc(C(C)(C)C#N)cc2C)cn1)C(C)(C)C (stereo not shown) [Compound 129, 2-(4-(6-(1-hydroxy-1-(4-methoxypyrimidin-5-yl)-2,2-dimethylpropyl)pyridin-3-yl)-3-methylphenyl)-2-methylpropanenitrile] | 60 to 79 | – |
| OC(Cc1ccc(F)cc1)(c1cncnc1)c1ccc(-c2ccc(OC(F)(F)F)cc2)cn1 (stereo not shown) [Compound 136] | 80 to 100 | – |
| CC(C)(C)C(O)(c1cncnc1)c1ccc(-c2ccc3c(c2)CCCO3)cn1 (stereo not shown) [Compound 137] | 80 to 100 | – |
| OC(Cc1ccc(F)cc1F)(c1cncnc1)c1ccc(-c2ccc(OC(F)(F)F)cc2)cn1 (stereo not shown) [Compound 138] | 80 to 100 | – |
| OC(Cc1cccc(F)c1)(c1cncnc1)c1ccc(-c2ccc(OC(F)(F)F)cc2)cn1 (stereo not shown) [Compound 139, 2-(3-fluorophenyl)-1-pyrimidin-5-yl-1-[5-[4-(trifluoromethoxy)-phenyl]-2-pyridyl]ethanol] | 80 to 100 | – |
| OC(Cc1ccc(Cl)cc1)(c1cncnc1)c1ccc(-c2ccc(OC(F)(F)F)cc2)cn1 (stereo not shown) [Compound 140] | 80 to 100 | – |
| OC(Cc1cccc(Cl)c1)(c1cncnc1)c1ccc(-c2ccc(OC(F)(F)F)cc2)cn1 (stereo not shown) [Compound 141] | 60 to 79 | – |
| OC(Cc1ccc(Cl)cc1Cl)(c1cncnc1)c1ccc(-c2ccc(OC(F)(F)F)cc2)cn1 (stereo not shown) [Compound 142] | 80 to 100 | – |
| Cc1cncc(C(O)(c2ccc(-c3ccc(OC(F)(F)F)cc3)cn2)C(C)(C)C)c1 (stereo not shown) [Compound 144] | 80 to 100 | – |
| CC(C)(C)C(O)(c1cccnc1)c1ccc(-c2ccc(OC(F)(F)F)cc2F)cn1 (stereo not shown) [Compound 147] | 80 to 100 | – |
| CC(C)(C)C(O)(c1cncnc1)c1ccc(-c2ccc(OC(F)(F)F)cn2)cn1 (stereo not shown) [Compound 150] | 80 to 100 | pest or weed control at 100 g/ha [2, 5]: 80 to 100%; pest or weed control at 100 g/ha [2, 6]: 80 to 100% |
| CC(C)(C)C(O)(c1cncnc1)c1ccc(-c2ccc(CC#N)cc2)cn1 (stereo not shown) [Compound 153] | 80 to 100 | – |
| CCC(C)(C)C(O)(c1cccnc1)c1ccc(-c2ccc(OC(F)(F)F)cc2)cn1 (stereo not shown) [Compound 154] | 80 to 100 | – |
| CC(F)(F)c1ccc(-c2ccc(C(O)(c3cncnc3)C(C)(C)C)nc2)cc1 (stereo not shown) [Compound 155] | 80 to 100 | pest or weed control at 100 g/ha [2, 5]: 60 to 79%; pest or weed control at 100 g/ha [2, 6]: 60 to 79% |
| CC(C)(C)C(O)(c1cncnc1)c1ccc(-c2ccc(C3(C(F)(F)F)CC3)cc2)cn1 (stereo not shown) [Compound 160] | 80 to 100 | pest or weed control at 100 g/ha [2, 5]: 80 to 100%; pest or weed control at 100 g/ha [2, 6]: 80 to 100% |
| CC(C)(C)C(O)(c1cncnc1)c1ccc(-c2ccc(OC(F)(F)C(F)(F)F)cc2)cn1 (stereo not shown) [Compound 161] | 80 to 100 | pest or weed control at 100 g/ha [2, 5]: 80 to 100%; pest or weed control at 100 g/ha [2, 6]: 80 to 100% |
| COc1ccc(-c2ccc(C(O)(c3cncnc3)C(C)(C)C)nc2)c(F)c1 (stereo not shown) [Compound 162] | 80 to 100 | pest or weed control at 100 g/ha [2, 5]: 80 to 100%; pest or weed control at 100 g/ha [2, 6]: 80 to 100% |
| COc1ncncc1C(O)(c1ccc(-c2ccc(C(C)(C)C)cc2)cn1)C(C)(C)C (stereo not shown) [Compound 168] | 60 to 79 | – |
| COc1ncncc1C(O)(c1ccc(-c2ccc(C#N)cc2)cn1)C(C)(C)C (stereo not shown) [Compound 170] | 80 to 100 | – |
| COc1ccc(-c2ccc(C(O)(c3cncnc3OC)C(C)(C)C)nc2)cn1 (stereo not shown) [Compound 171] | 80 to 100 | – |
| COc1ncncc1C(O)(c1ccc(-c2ccc(C(F)(F)F)nc2)cn1)C(C)(C)C (stereo not shown) [Compound 172] | 80 to 100 | – |
